A short description of series [1]: UV-Vis spectroscopic characteristics of free HABA and HABA-derivatives in buffer. Format: physicochemical. The method, then:
(§1) The degree of modification is calculated, after purification from side-products, on the basis of UV absorption at 356 nm in PBS, at 415 nm in basic environment, or at 504 nm after addition of excess of avidin in PBS.
(§2) Interaction of the HABAylated proteins with avidin or with anti-HABA antibodies is verified by following the characteristic shift of the absorption of the HABA chromophore. Table 4 depicts the spectroscopic characteristics in the spectra range of the HABA-derivatives as free molecules (not bound to proteins) upon interaction with avidin or specific affinity purified antibodies.

The target of the next series is T1, avidin (Gallus gallus, UniProt P02701).
T1 construct: purchased STC Laboratories (Winnipeg, Canada)
Nature of the series: Spectral shift of the HABA chromophore upon interaction with avidin. Format: binding. The procedure: as §1, §2

Series [2] has as its system affinity purified anti-HABA antibodies. The series can be described thus: Spectral shift of the HABA chromophore upon interaction with affinity purified anti-HABA antibodies. Format: binding, rabbit.
Where [3] appears, read: +affinity purified anti-HABA in PBS, (1:1).

T1 sequence (P02701 25-152): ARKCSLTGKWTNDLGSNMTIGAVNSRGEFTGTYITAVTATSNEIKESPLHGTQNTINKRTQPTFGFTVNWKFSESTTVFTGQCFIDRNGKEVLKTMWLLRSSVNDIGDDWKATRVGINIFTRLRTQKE

`O=C(CCc1cc(N=Nc2ccccc2C(=O)O)ccc1O)NCCCCCCNC(=O)ON1C(=O)CCC1=O` [Compound 17, 3′-(6-(succinimidyloxycarbonylamino)hexylaminocarbonylethyl)4′-hydroxy-azo-benzene-2-carboxylic acid]: in series [1] (0.1 M AcOH), the “ε[cm^−1M^−1] at λmax” value is 12,200 cm^−1M^−1 and the “λmax (nm)” value is recorded as 356 nm.

As to `NCCCCCCNC(=O)CCc1cc(N=Nc2ccccc2C(=O)O)ccc1O` [Compound 16, 3′-(6-aminohexylaminocarbonylethyl)-4′-hydroxy-azobenzene-2-carboxylic acid], the “ε[cm^−1M^−1] at λmax” value in series [1] (0.1 M AcOH) is 12,500 cm^−1M^−1; in series [1] (0.1 M NaOH), 15,000 cm^−1M^−1; in series [1] (PBS), 12,900 cm^−1M^−1; on avidin (PBS/AVIDIN), 30,000 cm^−1M^−1; in series [2] (PBS/anti-HABA), 50,000 cm^−1M^−1. In addition, the “λmax (nm)” value in series [1] (0.1 M AcOH) came to 356 nm; in series [1] (0.1 M NaOH), 420 nm; in series [1] (PBS), 356 nm; at avidin (PBS/AVIDIN), 504 nm; in series [2] (PBS/anti-HABA), 482 nm. In series [1] (at 280 nm), the ε280 nm is reported as 3,300.

With `O=C(O)c1ccccc1/N=N/c1ccc(O)cc1` [Compound 0, 4′-hydroxyazobenzene-2-carboxylic acid, reference compound], in series [1] (PBS), the “ε[cm^−1M^−1] at λmax” value is given as 20,500 cm^−1M^−1 and the “λmax (nm)” value came to 350 nm. Also, on avidin (+Avidin in PBS, (20:1)), the “ε[cm^−1M^−1]” value was 35,500 cm^−1M^−1 and the “λmax (nm)” value is on record as 500 nm. The “ε500 nm of bound HABA” value at avidin (at 500 nm, HABA bound to nonlabeled avidin or anti-HABA antibodies) was “about 30,000”. In addition, in series [2] (setting [3]), the “ε[cm^−1M^−1]” value is 50,000 cm^−1M^−1 and the “λmax (nm)” value is recorded as 482 nm.

The values above are taken from patent publication US6602987B1, “Azobenzene derivatives as labeling agents and intermediates thereof” (Yeda Research and Development Co., Ltd., priority 1998, dated 2003).
